This note sets out measurements from ChEMBL document CHEMBL1131654 (Bioorg Med Chem Lett, 1998).

Assay [1] concerns the target T1, 5-hydroxytryptamine receptor 1B (Homo sapiens, UniProt P28222). As to the kind of experiment: In vitro binding affinity was determined towards cloned human 5-hydroxytryptamine 1B receptor using [3H]5-CT radioligand.
In assay [2] the target is T1, 5-hydroxytryptamine receptor 1B. The experiment in a line: 5-hydroxytryptamine 1B receptor agonist potency was evaluated as effective dose that induced hypothermia in the guinea-pig upon intraperitoneal administration. The assay is classed as functional, organism-based. The following applies: Cavia porcellus; target entry is the homologue from another species.
Assay [3] has as its target 5-hydroxytryptamine receptor 1D (Homo sapiens, UniProt P28221). The experiment in a line: In vitro binding affinity was determined towards cloned human 5-hydroxytryptamine 1D receptor using [3H]5-CT radioligand.
In assay [4] the target is T1, 5-hydroxytryptamine receptor 1B. The following applies: Oryctolagus cuniculus; Saphenous vein.
Description: 5-hydroxytryptamine 1B receptor agonist potency determined in rabbit saphenous vein contraction model
For assay [5] the target is unchanged. As to the kind of experiment: Effective concentration determined by measuring inhibition of forskolin-stimulated c-AMP formation at 5-hydroxytryptamine 1B receptor stably transfected in CHO cell lines. The assay is classed as functional, cell-based.
For assay [6], the target named is T2, 5-hydroxytryptamine receptor 1A (Homo sapiens, UniProt P08908).
T2 sequence (P08908 whole entry): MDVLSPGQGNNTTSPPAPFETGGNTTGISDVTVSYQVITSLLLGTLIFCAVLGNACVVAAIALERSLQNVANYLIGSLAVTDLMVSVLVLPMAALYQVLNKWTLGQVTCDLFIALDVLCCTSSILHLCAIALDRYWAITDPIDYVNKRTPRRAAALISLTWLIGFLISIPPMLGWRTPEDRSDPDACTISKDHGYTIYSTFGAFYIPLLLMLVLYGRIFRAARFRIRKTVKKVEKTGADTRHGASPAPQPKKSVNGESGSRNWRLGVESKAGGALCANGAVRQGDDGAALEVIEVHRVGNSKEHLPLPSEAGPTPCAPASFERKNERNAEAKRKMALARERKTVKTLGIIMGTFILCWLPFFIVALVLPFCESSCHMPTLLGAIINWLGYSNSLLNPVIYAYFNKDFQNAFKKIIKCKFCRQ
As to the kind of experiment: In vitro binding affinity was determined towards cloned human 5-hydroxytryptamine 1A receptor using [3H]8-OH-DPAT radioligand.

Assay [7] concerns the target T1, 5-hydroxytryptamine receptor 1B. As to the kind of experiment: 5-HT1B agonist potency was evaluated as effective dose that induced hypothermia in the guinea-pig upon intraperitoneal administration. The note with it: Cavia porcellus; target entry is the homologue from another species. The assay is classed as functional, organism-based.

The structures appear in SMILES notation.

T1 sequence (P28222 whole entry): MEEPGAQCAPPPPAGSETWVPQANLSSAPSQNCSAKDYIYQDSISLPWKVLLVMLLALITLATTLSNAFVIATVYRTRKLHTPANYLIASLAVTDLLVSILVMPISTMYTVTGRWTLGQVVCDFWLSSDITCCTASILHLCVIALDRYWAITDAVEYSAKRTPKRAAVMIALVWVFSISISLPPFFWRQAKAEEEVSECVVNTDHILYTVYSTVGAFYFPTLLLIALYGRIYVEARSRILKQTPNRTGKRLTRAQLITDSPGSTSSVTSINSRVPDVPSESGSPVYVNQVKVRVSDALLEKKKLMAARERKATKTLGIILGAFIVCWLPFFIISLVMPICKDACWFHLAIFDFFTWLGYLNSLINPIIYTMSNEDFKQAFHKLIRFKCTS
5-hydroxytryptamine receptor 1D, sequence (P28221 whole entry): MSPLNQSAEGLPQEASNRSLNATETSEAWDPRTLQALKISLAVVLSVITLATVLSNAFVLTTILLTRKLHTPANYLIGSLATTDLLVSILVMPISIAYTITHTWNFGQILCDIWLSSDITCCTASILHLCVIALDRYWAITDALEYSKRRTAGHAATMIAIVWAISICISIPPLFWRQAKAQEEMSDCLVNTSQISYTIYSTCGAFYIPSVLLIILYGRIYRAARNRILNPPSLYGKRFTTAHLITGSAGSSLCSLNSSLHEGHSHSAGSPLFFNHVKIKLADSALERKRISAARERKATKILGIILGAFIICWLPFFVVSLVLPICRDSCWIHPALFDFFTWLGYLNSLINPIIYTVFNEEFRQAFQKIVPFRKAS

Turning to `CN(C)CCc1c[nH]c2ccc(CS(=O)(=O)N(C)Cc3ccc(CN(C)S(=O)(=O)Cc4ccc5[nH]cc(CCN(C)C)c5c4)cc3)cc12`, the values for the inhibition constant (Ki) in assay [1], in assay [3] and in assay [6] were 0.64 nM, 0.89 nM and 17.7 nM, respectively. Further, in assay [2], the 50% effective dose (ED50) (usually the dose at which the effect has come halfway, by size or by number of responders) is 1.3 mg/kg. In assay [4], this molecule gave a pD2 of 6.6. The EC50 (as a rule, the midpoint of the concentration-response curve) in assay [5] turned out to be 0.58 nM.

On to `CN(C)CCc1c[nH]c2ccc(C[C@H]3COC(=O)N3)cc12` [ZOLMITRIPTAN], for which the Ki (in general, the dissociation constant of the complex between target and ligand, obtained from inhibition or displacement) in assay [1] was 4.2 nM; in assay [3], 0.76 nM. Besides, the pD2 in assay [4] was 6.2. Moreover, the EC50 in assay [5] was found to be 15.7 nM. Moreover, the ED50 in assay [7] was 3.2 mg/kg.
